≈ marks a conversion by molar mass, not a printed value.
Assays:
[1] = system: Staphylococcus aureus Smith; assay: in vivo antibacterial activity, survival of infected mice (Table III); set-up: species or system Charles River CD-1 mice; settings: subcutaneous
Procedure: (§1) Charles River CD-1 mice were infected with either Klebsiella pneumoniae AD or Staphylococcus aureus Smith. A single subcutaneous dose of the test compound was administered 1/2 hour after infection. […] The results appear in Tables II and III, wherein the representative test compounds are identified by the number of their hereinafter described examples.

[2] = system: Enterobacter cloacae VGH 84-37; assay: in vitro antibacterial MIC, agar plate dilution; format: cell-based; settings: Enterobacter cloacae, VGH8437, 18 h, 35° C., read-out: MIC
Summary of the method: (§2)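 Minimal inhibitory concentrations came from agar plate dilution in Mueller-Hinton medium. Each organism was delivered at roughly 10^4 CFU by Steers replicator. Plates were read for visible growth after 18 hours at 35° C, values in mcg/ml.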

[3] = system: Klebsiella pneumoniae MOR 84-4; assay: in vitro antibacterial MIC, agar plate dilution; format: cell-based; settings: Klebsiella pneumoniae, MOR844, 18 h, 35° C., read-out: MIC
Summary of the method: as §2

[4] = system: Proteus rettgeri CMC 84-41; assay: in vitro antibacterial MIC, agar plate dilution; format: cell-based; settings: Providencia rettgeri, CMC8441, 18 h, 35° C., read-out: MIC
Summary of the method: as §2

[5] = system: Morganella morganii VGH 84-11; assay: in vitro antibacterial MIC, agar plate dilution; format: cell-based; settings: VGH8411, 18 hours, 35° C., read-out: MIC
Summary of the method: as §2

[6] = system: Escherichia coli ATCC 25922; assay: in vitro antibacterial MIC, agar plate dilution; format: cell-based; settings: Escherichia coli, ATCC25922, 18 h, 35° C., read-out: MIC
Summary of the method: as §2

[7] = system: Staphylococcus aureus Smith; assay: in vitro antibacterial MIC, agar plate dilution; format: cell-based; settings: Staphylococcus aureus, 18 h, 35° C., read-out: MIC
Summary of the method: as §2

[8] = system: Escherichia coli CMC 84-11; assay: in vitro antibacterial MIC, agar plate dilution; format: cell-based; settings: Escherichia coli, CMC8411, 18 h, 35° C., read-out: MIC
Summary of the method: as §2

[9] = system: Staphylococcus aureus ATCC 25913; assay: in vitro antibacterial MIC, agar plate dilution; format: cell-based; settings: ATCC25913, 18 hours, 35° C.
Summary of the method: as §2

[10] = system: Enterobacter aerogenes VGH 84-36; assay: in vitro antibacterial MIC, agar plate dilution; format: cell-based; settings: Klebsiella aerogenes, VGH8436, 18 hours, 35° C., read-out: MIC
Summary of the method: as §2

[11] = system: Klebsiella pneumoniae AD; assay: in vitro antibacterial MIC, agar plate dilution; format: cell-based; settings: Klebsiella pneumoniae, 18 h, 35° C., read-out: MIC
Summary of the method: as §2

[12] = system: Pseudomonas aeruginosa VGH 84-4; assay: in vitro antibacterial MIC, agar plate dilution; format: cell-based; settings: Pseudomonas aeruginosa, VGH844, 18 h, 35° C., read-out: MIC
Summary of the method: as §2

[13] = system: Klebsiella pneumoniae AD; assay: in vivo antibacterial activity, survival of infected mice (Table II); set-up: species or system Charles River CD-1 mice; settings: subcutaneous
Procedure: as §1

Row | Compound | Survival Ratio 7 Days After Infection ([1]; 0.5 mg/kg single dose) | Survival Ratio 7 Days After Infection ([1]; 1 mg/kg single dose) | Survival Ratio 7 Days After Infection ([1]; 2 mg/kg single dose) | Survival Ratio 7 Days After Infection ([1]; 4 mg/kg single dose) | Survival Ratio 7 Days After Infection ([1]; 8 mg/kg single dose) | MIC [2] [µg/mL] | MIC [3] [µg/mL] | MIC [4] [µg/mL] | MIC [5] [µg/mL] | MIC [6] [µg/mL] | MIC [7] [µg/mL] | MIC [8] [µg/mL] | MIC [9] [µg/mL] | MIC [10] [µg/mL] | MIC [11] [µg/mL] | MIC [12] [µg/mL] | also measured
1 | CCn1cc(C(=O)O)c(=O)c2cc(F)c(N3CCN(C)C(c4ccc(Br)s4)C3)cc21 (stereo not drawn) [Example 14, 7-[3-(5-Bromo-2-thienyl)-4-methyl-1-piperazinyl]-1-ethyl-6-fluoro-1,4-dihydro-4-oxo-3-quinolinecarboxylic acid] | 0/5 | 0/5 | 0/5 | 5/5 | 5/5 | > 256 | > 256 | 128 (≈ 259 µM) | > 256 | > 256 | 0.25 (≈ 0.506 µM) | > 256 | 0.5 (≈ 1.01 µM) | > 256 | 256 (≈ 518 µM) | > 256 | –
2 | CCn1cc(C(=O)O)c(=O)c2cc(F)c(N3CCNC(c4cc5cc(Cl)ccc5o4)C3)cc21 (stereo not drawn) [Example 18, 7-[3-(5-Chloro-2-benzofuranyl)-1-piperazinyl]-1-ethyl-6-fluoro-1,4-dihydro-4-oxo-3-quinolinecarboxylic acid] | 0/5 | 0/5 | 0/5 | 0/5 | 2/5 | 16 (≈ 34 µM) | 32 (≈ 68.1 µM) | 16 (≈ 34 µM) | 16 (≈ 34 µM) | 16 (≈ 34 µM) | ≤ 0.12 | 16 (≈ 34 µM) | 2 (≈ 4.26 µM) | 128 (≈ 272 µM) | 16 (≈ 34 µM) | > 256 | Survival Ratio 7 Days After Infection ([13]; 0.25 mg/kg single dose): 0/5; Survival Ratio 7 Days After Infection ([13]; 1 mg/kg single dose): 0/5; Survival Ratio 7 Days After Infection ([13]; 4 mg/kg single dose): 1/5; Survival Ratio 7 Days After Infection ([13]; 16 mg/kg single dose): 4/5; Survival Ratio 7 Days After Infection ([13]; 64 mg/kg single dose): 5/5
3 | FCC1CNCCN1 (stereo not drawn) [Example 23, 2-(Fluoromethyl)piperazine] | – | – | – | 0/5 | 0/5 | – | – | – | – | – | – | – | – | – | – | – | Survival Ratio 7 Days After Infection ([1]; 16 mg/kg single dose): 5/5; Survival Ratio 7 Days After Infection ([1]; 32 mg/kg single dose): 5/5; Survival Ratio 7 Days After Infection ([1]; 64 mg/kg single dose): 5/5
